Assay results as given in patent publication US9492471B2, “Methods of treating a disease or disorder associated with Bruton'S Tyrosine Kinase” (Celgene Avilomics Research, Inc., priority 2013, dated 2016).
Read-outs that look alike come from different tables or passages of the source.

Assays:
Assay in all cases: HotSpot kinase profiling
Assay type in all cases: biochemical
ARAF = biological target: T1, ARAF (Homo sapiens, UniProt P10398)
T1 construct: purchased Reaction Biology Corp
T1 sequence (P10398 1-606): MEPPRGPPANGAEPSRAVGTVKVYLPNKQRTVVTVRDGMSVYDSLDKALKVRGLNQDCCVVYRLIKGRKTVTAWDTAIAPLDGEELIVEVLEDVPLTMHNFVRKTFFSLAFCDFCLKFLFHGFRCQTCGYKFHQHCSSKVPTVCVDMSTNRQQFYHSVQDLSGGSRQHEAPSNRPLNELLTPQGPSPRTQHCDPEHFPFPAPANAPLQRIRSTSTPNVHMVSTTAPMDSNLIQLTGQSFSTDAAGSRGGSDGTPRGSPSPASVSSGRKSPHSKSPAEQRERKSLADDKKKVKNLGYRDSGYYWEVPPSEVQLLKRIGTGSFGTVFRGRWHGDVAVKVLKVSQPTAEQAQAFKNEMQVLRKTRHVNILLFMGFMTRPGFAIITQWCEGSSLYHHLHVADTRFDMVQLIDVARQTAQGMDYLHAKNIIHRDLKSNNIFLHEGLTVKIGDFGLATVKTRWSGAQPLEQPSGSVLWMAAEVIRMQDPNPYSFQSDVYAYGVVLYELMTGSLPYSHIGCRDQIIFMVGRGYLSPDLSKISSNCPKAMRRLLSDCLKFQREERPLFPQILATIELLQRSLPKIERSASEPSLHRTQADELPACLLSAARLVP
Summary of the method: (§1)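 P81 filtration radiometric readout; 2 h incubation at room temperature; 0.1% phosphoric acid wash; DMSO negative control; % inhibition, mean of replicate runs.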

CLK3 = biological target: T2, CLK3 (Homo sapiens, UniProt P49761)
T2 construct: purchased Reaction Biology Corp
T2 sequence (P49761 whole entry): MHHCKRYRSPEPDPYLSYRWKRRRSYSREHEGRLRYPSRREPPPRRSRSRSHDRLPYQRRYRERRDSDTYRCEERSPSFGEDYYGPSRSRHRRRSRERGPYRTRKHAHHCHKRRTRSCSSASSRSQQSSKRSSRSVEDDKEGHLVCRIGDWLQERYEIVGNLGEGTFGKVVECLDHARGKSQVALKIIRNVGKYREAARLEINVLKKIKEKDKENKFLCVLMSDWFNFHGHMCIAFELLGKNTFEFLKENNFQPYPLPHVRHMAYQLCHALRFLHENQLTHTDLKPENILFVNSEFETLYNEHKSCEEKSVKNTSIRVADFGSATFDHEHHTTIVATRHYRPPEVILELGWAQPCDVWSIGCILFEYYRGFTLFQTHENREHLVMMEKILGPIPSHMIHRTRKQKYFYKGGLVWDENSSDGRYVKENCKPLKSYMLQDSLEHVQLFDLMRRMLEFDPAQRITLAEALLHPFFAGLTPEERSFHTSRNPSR
Summary of the method: as §1

ERK5/MAPK7 = biological target: T3, ERK5/MAPK7 (Homo sapiens, UniProt Q13164)
T3 construct: purchased Reaction Biology Corp
T3 sequence (Q13164 whole entry): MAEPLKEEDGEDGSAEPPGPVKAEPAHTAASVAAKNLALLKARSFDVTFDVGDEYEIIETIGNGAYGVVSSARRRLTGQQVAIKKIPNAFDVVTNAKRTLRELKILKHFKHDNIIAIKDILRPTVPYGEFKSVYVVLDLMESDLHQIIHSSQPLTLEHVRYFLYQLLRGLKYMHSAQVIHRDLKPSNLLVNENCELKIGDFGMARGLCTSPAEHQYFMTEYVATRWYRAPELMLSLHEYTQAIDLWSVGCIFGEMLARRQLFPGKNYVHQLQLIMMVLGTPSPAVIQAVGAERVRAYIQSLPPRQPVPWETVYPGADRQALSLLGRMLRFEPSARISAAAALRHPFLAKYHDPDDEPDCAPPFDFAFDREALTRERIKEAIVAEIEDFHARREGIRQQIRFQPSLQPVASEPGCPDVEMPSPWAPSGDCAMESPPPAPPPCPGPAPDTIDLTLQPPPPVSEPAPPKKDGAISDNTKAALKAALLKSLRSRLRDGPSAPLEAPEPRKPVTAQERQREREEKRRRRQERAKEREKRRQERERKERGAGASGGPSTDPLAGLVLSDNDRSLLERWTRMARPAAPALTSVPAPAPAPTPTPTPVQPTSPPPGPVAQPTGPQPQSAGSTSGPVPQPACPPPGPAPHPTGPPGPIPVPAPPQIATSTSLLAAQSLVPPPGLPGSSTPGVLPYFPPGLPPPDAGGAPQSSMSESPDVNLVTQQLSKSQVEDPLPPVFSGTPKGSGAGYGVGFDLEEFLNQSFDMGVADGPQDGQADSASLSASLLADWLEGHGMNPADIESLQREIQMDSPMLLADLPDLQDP
Summary of the method: as §1

GSK3a = biological target: T4, GSK3a (Homo sapiens, UniProt P49840)
T4 construct: purchased Reaction Biology Corp
Summary of the method: as §1

IRR/INSRR = biological target: T5, IRR/INSRR (Homo sapiens, UniProt P14616)
T5 construct: purchased Reaction Biology Corp
T5 sequence (P14616 27-1297): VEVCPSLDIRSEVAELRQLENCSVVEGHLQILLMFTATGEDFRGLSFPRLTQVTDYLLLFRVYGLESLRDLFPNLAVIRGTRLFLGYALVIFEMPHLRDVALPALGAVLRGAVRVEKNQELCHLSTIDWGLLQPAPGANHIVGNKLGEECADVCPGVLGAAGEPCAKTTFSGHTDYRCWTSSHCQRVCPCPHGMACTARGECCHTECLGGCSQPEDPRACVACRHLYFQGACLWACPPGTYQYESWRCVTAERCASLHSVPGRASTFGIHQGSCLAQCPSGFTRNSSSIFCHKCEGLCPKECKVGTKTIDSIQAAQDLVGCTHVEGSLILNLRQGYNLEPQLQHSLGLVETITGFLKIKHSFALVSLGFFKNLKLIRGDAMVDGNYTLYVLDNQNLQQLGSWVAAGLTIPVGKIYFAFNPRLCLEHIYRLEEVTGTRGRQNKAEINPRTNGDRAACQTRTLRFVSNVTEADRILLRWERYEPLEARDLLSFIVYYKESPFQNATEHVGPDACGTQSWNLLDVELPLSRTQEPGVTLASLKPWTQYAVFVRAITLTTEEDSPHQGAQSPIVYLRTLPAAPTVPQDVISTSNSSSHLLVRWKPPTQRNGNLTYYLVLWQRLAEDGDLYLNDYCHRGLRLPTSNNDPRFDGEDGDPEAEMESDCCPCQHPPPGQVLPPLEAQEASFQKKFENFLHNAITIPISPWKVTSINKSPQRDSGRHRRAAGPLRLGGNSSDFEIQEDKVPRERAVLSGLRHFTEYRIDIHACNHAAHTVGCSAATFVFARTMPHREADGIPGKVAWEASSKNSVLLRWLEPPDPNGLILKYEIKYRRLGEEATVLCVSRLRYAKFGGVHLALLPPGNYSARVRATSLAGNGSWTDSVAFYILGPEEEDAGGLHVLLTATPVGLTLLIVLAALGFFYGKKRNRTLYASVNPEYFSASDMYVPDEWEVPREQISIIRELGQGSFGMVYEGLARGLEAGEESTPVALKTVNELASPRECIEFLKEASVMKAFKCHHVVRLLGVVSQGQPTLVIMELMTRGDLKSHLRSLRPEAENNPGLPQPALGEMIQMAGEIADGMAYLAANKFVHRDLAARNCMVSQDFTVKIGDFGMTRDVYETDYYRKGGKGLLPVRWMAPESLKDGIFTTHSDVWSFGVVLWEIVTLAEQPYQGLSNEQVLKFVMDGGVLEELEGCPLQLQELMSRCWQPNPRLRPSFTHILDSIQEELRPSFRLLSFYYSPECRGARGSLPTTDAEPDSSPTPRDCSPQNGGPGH
Summary of the method: as §1

MINK/MINK1 = biological target: T6, MINK/MINK1 (Homo sapiens, UniProt Q8N4C8)
T6 construct: purchased Reaction Biology Corp
T6 sequence (Q8N4C8 whole entry): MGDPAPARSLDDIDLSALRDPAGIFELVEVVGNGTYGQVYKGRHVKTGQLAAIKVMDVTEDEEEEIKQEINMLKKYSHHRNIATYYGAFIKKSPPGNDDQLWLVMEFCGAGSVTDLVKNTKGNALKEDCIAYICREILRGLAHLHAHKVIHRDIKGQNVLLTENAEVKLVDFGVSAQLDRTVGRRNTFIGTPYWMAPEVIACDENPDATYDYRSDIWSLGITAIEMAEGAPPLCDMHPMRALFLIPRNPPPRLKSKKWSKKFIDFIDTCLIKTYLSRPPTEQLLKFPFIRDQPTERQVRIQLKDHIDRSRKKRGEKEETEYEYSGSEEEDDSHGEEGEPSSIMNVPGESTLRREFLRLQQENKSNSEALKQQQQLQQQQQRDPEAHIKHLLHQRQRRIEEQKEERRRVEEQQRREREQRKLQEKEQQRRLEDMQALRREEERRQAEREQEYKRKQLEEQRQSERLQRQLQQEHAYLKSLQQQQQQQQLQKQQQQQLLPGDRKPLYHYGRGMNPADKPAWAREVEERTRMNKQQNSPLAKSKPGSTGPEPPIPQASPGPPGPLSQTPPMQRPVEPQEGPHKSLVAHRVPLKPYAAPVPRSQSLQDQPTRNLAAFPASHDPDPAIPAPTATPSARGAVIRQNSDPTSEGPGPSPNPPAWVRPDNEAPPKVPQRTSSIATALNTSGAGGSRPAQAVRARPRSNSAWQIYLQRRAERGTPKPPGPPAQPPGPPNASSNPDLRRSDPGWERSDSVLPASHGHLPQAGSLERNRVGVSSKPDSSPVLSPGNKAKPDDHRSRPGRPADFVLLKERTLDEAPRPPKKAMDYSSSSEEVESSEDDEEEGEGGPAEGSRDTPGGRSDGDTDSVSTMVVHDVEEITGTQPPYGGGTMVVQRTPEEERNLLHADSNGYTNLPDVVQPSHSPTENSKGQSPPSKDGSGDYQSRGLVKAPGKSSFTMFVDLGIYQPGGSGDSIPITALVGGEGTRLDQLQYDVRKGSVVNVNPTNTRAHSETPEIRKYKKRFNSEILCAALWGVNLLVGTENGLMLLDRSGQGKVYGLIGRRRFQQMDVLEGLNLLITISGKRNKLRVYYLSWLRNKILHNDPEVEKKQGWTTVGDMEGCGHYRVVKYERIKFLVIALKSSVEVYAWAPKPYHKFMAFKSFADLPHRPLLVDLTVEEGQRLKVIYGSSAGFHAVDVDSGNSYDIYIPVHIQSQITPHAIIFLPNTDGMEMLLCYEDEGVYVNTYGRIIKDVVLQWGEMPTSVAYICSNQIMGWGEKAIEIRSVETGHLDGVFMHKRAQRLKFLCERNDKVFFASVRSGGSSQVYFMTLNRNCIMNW
Summary of the method: as §1

MLCK/MYLK = biological target: T7, MLCK/MYLK (Homo sapiens, UniProt Q15746)
T7 construct: purchased Reaction Biology Corp
Summary of the method: as §1

MST4 = biological target: T8, MST4 (Homo sapiens, UniProt Q9P289)
T8 construct: purchased Reaction Biology Corp
Summary of the method: as §1

PAK1 = biological target: T9, PAK1 (Homo sapiens, UniProt Q13153)
T9 construct: purchased Reaction Biology Corp
T9 sequence (Q13153 whole entry): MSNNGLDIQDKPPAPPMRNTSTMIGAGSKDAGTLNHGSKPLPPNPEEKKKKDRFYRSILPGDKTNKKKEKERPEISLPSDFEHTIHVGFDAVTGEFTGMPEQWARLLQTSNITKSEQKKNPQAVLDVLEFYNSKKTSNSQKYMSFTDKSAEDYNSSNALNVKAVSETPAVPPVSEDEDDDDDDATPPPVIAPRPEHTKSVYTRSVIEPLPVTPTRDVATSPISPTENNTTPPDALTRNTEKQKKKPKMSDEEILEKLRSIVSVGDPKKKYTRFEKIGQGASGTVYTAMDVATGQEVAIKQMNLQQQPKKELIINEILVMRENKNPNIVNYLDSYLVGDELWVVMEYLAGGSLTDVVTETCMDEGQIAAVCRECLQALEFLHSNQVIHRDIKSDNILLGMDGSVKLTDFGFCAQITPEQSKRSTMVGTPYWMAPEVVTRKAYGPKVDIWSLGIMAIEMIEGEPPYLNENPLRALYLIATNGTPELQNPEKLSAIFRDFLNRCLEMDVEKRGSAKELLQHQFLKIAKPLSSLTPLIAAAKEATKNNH
Summary of the method: as §1

PIM1 = biological target: T10, PIM1 (Homo sapiens, UniProt P11309)
T10 construct: purchased Reaction Biology Corp
T10 sequence (P11309 whole entry): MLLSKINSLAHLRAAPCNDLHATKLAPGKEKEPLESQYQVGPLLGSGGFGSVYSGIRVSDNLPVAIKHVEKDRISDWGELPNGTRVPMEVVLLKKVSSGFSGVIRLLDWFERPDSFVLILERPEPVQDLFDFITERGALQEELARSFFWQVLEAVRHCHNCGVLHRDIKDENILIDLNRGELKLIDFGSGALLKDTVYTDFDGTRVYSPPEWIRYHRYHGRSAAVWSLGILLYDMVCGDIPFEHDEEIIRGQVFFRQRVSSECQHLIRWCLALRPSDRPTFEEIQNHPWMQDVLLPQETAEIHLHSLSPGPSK
Summary of the method: as §1

TAOK3/JIK = biological target: T11, TAOK3/JIK (Homo sapiens, UniProt Q9H2K8)
T11 construct: purchased Reaction Biology Corp
T11 sequence (Q9H2K8 1-898): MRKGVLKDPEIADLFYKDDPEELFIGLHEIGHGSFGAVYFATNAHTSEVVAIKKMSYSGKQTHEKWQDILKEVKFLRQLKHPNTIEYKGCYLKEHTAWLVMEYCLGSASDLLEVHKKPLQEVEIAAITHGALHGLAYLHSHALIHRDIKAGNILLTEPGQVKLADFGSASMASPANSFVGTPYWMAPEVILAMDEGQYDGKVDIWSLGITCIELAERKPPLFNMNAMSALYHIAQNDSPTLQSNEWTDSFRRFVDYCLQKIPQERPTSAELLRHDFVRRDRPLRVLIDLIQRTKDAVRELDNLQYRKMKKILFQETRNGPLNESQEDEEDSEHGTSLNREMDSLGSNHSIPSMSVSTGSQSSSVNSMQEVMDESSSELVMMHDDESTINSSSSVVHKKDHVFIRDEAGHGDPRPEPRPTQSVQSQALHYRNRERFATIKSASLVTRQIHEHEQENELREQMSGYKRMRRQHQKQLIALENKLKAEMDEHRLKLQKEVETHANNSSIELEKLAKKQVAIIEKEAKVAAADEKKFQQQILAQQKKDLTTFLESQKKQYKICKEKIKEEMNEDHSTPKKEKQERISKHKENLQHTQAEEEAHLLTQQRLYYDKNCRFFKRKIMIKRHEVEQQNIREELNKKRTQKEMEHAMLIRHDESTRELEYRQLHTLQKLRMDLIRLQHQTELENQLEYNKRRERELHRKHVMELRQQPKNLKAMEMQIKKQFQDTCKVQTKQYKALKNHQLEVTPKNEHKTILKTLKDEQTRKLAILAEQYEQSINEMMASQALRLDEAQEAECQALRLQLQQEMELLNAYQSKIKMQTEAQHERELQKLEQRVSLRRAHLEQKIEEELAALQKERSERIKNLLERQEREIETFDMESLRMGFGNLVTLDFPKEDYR
Summary of the method: as §1

[1] = read-out: % Enzyme Activity (relative to DMSO controls) Run 1
[2] = read-out: % Enzyme Activity (relative to DMSO controls) Run 2

SMILES: C=CC(=O)Nc1cccc(Nc2nc(Nc3ccc(OCCOC)c(F)c3)ncc2F)c1 [Compound 2]
- inhibition at 3 µM (ARAF): -1.47%
- remaining activity at 3 µM (ARAF; [1]): 103%
- remaining activity at 3 µM (ARAF; [2]): 100%
- inhibition at 3 µM (CLK3): 6.9%
- remaining activity at 3 µM (CLK3; [1]): 90.4%
- remaining activity at 3 µM (CLK3; [2]): 95.8%
- inhibition at 3 µM (ERK5/MAPK7): -0.37%
- remaining activity at 3 µM (ERK5/MAPK7; [1]): 101%
- remaining activity at 3 µM (ERK5/MAPK7; [2]): 99.9%
- inhibition at 3 µM (GSK3a): 24.5%
- remaining activity at 3 µM (GSK3a; [1]): 76%
- remaining activity at 3 µM (GSK3a; [2]): 75%
- inhibition at 3 µM (IRR/INSRR): 10.1%
- remaining activity at 3 µM (IRR/INSRR; [1]): 88.9%
- remaining activity at 3 µM (IRR/INSRR; [2]): 91%
- inhibition at 3 µM (MINK/MINK1): 0.9%
- remaining activity at 3 µM (MINK/MINK1; [1]): 101%
- remaining activity at 3 µM (MINK/MINK1; [2]): 97.5%
- inhibition at 3 µM (MLCK/MYLK): 4.59%
- remaining activity at 3 µM (MLCK/MYLK; [1]): 95.6%
- remaining activity at 3 µM (MLCK/MYLK; [2]): 95.2%
- inhibition at 3 µM (MST4): -1.09%
- remaining activity at 3 µM (MST4; [1]): 97.8%
- remaining activity at 3 µM (MST4; [2]): 104%
- inhibition at 3 µM (PAK1): 2.58%
- remaining activity at 3 µM (PAK1; [1]): 96.3%
- remaining activity at 3 µM (PAK1; [2]): 98.6%
- inhibition at 3 µM (PIM1): -3.82%
- remaining activity at 3 µM (PIM1; [1]): 104%
- remaining activity at 3 µM (PIM1; [2]): 104%
- inhibition at 3 µM (TAOK3/JIK): 7.74%
- remaining activity at 3 µM (TAOK3/JIK; [1]): 94.5%
- remaining activity at 3 µM (TAOK3/JIK; [2]): 90%
